Test results published in patent publication US20240287052A1, “NOVEL OXAZOLE DERIVATIVE AND PHARMACEUTICAL COMPOSITION FOR PREVENTING OR TREATING ALLERGIC DISEASES COMPRISING THE SAME” (AZCURIS CO., LTD., priority 2021, published 2024).
Read-outs that look alike come from different tables or passages of the source.

Molecular target: T1, IL33 and ST2 binding (Homo sapiens, UniProt O95760)
T1 sequence (O95760 112-270 limits assumed): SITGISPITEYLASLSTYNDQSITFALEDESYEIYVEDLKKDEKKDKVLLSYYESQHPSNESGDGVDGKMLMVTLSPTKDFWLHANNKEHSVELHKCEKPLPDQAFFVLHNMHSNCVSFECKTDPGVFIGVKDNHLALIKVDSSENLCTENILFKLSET
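Also: plate ELISA with coated Flag-tagged human IL-33 and His-tagged human ST2, bound ST2 detected by anti-His HRP and TMB absorbance at 450 nm, 2 h compound incubation.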

SMILES | inhibition (30 µM) | inhibition (100 µM)
CN1CCN(CCNC(=O)c2nc(-c3ccc(C4CC4)cc3)oc2-c2ccccc2)CC1 [Compound 280, 2-(4-Cyclopropylphenyl)-N-(2-(4-Methylpiperazin-1-yl)ethyl)-5-phenyloxazole-4-carboxamide] | 2% | 0%
CSc1ccc(-c2nc(C(=O)NCCN3CCN(C)CC3)c(-c3ccccc3[N+](=O)[O-])o2)cc1 [Compound 274, N-(2-(4-Methylpiperazin-1-yl)ethyl)-2-(4-(methylthio)phenyl)-5-(2-nitrophenyl)oxazole-4-carboxamide] | 18% | 20%
CCOC(=O)c1coc(-c2ccc(SC)cc2)n1 [Compound 22, Ethyl 2-(4-(methylthio)phenyl)oxazole-4-carboxylate] | – | 45%
O=C(NCCCN1CCCC1)c1nc(-c2ccc(C(F)(F)F)cc2)oc1-c1ccccc1[N+](=O)[O-] [Compound 140, 5-(2-Nitrophenyl)-N-(3-(pyrrolidin-1-yl)propyl)-2-(4-(trifluoromethyl)phenyl)oxazole-4-carboxamide] | 10% | 15%
CN(C)CCNC(=O)c1nc(-c2ccc(N(C)C)cc2)oc1-c1ccccc1 [Compound 261, N-(2-(Dimethylamino)ethyl)-2-(4-(dimethylamino)phenyl)-5-phenyloxazole-4-carboxamide] | 3% | 8%
CN1CCN(CCNC(=O)c2nc(-c3ccc(C#N)cc3)oc2-c2ccccc2[N+](=O)[O-])CC1 [Compound 252, 2-(4-Cyanophenyl)-N-(2-(4-methylpiperazin-1-yl)ethyl)-5-(2-nitrophenyl)oxazole-4-carboxamide] | 28% | 19%
CCOC(=O)N1CCN(C(=O)c2nc(-c3ccc(C(F)(F)F)cc3)oc2-c2ccccc2[N+](=O)[O-])CC1 [Compound 163, Ethyl 4-(5-(2-nitrophenyl)-2-(4-(trifluoromethyl)phenyl)oxazole-4-carbonyl)piperazine-1-carboxylate] | -30% | -19%
CCOC(=O)c1nc(-c2ccc(OC)cc2)oc1-c1ccc([N+](=O)[O-])cc1 [Compound 64, Ethyl 2-(4-methoxyphenyl)-5-(4-nitrophenyl)oxazole-4-carboxylate] | 13% | 35%
CN1CCN(CCNC(=O)c2nc(-c3cccc(C(F)(F)F)c3)oc2-c2ccccc2[N+](=O)[O-])CC1 [Compound 124, N-(2-(4-Methylpiperazin-1-yl)ethyl)-5-(2-nitrophenyl)-2-(3-(trifluoromethyl)phenyl)oxazole-4-carboxamide] | 50% | 31%
CCOC(=O)c1nc(-c2cccc(F)c2)oc1-c1ccccc1[N+](=O)[O-] [Compound 66, Ethyl 2-(3-fluorophenyl)-5-(2-nitrophenyl)oxazole-4-carboxylate] | 49% | 71%
CN1CCN(CCNC(=O)c2nc(-c3ccc(OC(F)(F)F)cc3)oc2-c2ccccc2[N+](=O)[O-])CC1 [Compound 206, N-(2-(4-methylpiperazin-1-yl)ethyl)-5-(2-nitrophenyl)-2-(4-(trifluoromethoxy)phenyl)oxazole-4-carboxamide] | 23% | 49%
O=C(c1nc(-c2ccc(C(F)(F)F)cc2)oc1-c1ccccc1[N+](=O)[O-])N1CCN(CCN2CCCCC2)CC1 [Compound 151, (5-(2-Nitrophenyl)-2-(4-(trifluoromethyl)phenyl)oxazol-4-yl)(4-(2-(piperidin-1-yl)ethyl)piperazin-1-yl)methanone] | -33% | -16%
CN1CCN(CCNC(=O)c2nc(-c3ccc(C#N)cc3)oc2-c2ccccc2)CC1 [Compound 250, 2-(4-Cyanophenyl)-N-(2-(4-methylpiperazin-1-yl)ethyl)-5-phenyloxazole-4-carboxamide] | 14% | 9%
CN(C)CCNC(=O)c1nc(-c2ccc([N+](=O)[O-])cc2)oc1-c1ccccc1 [Compound 275, N-(2-(Dimethylamino)ethyl)-2-(4-nitrophenyl)-5-phenyloxazole-4-carboxamide] | -16% | -28%
CN(C)CCNC(=O)c1nc(-c2ccc(F)c(F)c2)oc1-c1ccccc1[N+](=O)[O-] [Compound 233, 2-(3,4-Difluorophenyl)-N-(2-(dimethylamino)ethyl)-5-(2-nitrophenyl)oxazole-4-carboxamide] | -27% | -27%
CN1CCN(CCNC(=O)c2nc(-c3ccc(F)c(F)c3)oc2-c2ccccc2[N+](=O)[O-])CC1 [Compound 234, 2-(3,4-Difluorophenyl)-N-(2-(4-methylpiperazin-1-yl)ethyl)-5-(2-nitrophenyl)oxazole-4-carboxamide] | 13% | 19%
CC(C)(C)OC(=O)N1CCN(CCNC(=O)c2nc(-c3ccc(C(F)(F)F)cc3)oc2-c2ccccc2[N+](=O)[O-])CC1 [Compound 172, tert-Butyl-4-(2-(5-(2-nitrophenyl)-2-(4-(trifluoromethyl)phenyl)oxazole-4-carboxamido)ethyl)piperazine-1-carboxylate] | 51% | 50%

SMILES | inhibition (30 µM) | inhibition (100 µM)
CN(C)CCNC(=O)c1nc(-c2cccc(C(F)(F)F)c2)oc1-c1ccccc1[N+](=O)[O-] [Compound 123, N-(2-(Dimethylamino)ethyl)-5-(2-nitrophenyl)-2-(3-(trifluoromethyl)phenyl)oxazole-4-carboxamide] | -22% | 39%
CN1CCN(CCNC(=O)c2nc(-c3cccc(OC(F)(F)F)c3)oc2-c2ccccc2[N+](=O)[O-])CC1 [Compound 202, N-(2-(4-Methylpiperazin-1-yl)ethyl)-5-(2-nitrophenyl)-2-(3-(trifluoromethoxy)phenyl)oxazole-4-carboxamide] | 7% | 32%
CCOC(=O)c1nc(-c2ccc(F)cc2)oc1-c1ccccc1[N+](=O)[O-] [Compound 68, Ethyl 2-(4-fluorophenyl)-5-(2-nitrophenyl)oxazole-4-carboxylate] | 55% | 105%
CN1CCN(CCNC(=O)c2nc(-c3ccc([N+](=O)[O-])cc3)oc2-c2ccccc2[N+](=O)[O-])CC1 [Compound 278, N-(2-(4-Methylpiperazin-1-yl)ethyl)-5-(2-nitrophenyl)-2-(4-nitrophenyl)oxazole-4-carboxamide] | 46% | 47%
CCOC(=O)c1nc(-c2ccc(OC)cc2)oc1-c1ccccc1 [Compound 62, Ethyl 2-(4-methoxyphenyl)-5-phenyloxazole-4-carboxylate] | 33% | 65%
CCOC(=O)c1nc(-c2ccc(C(C)(C)C)cc2)oc1-c1ccc(N(C(C)=O)C(C)=O)cc1 [Compound 110, Ethyl 5-(4-(N-acetylacetamido)phenyl)-2-(4-(tert-butyl)phenyl)oxazole-4-carboxylate] | 19% | 26%
CN1CCN(CCNC(=O)c2nc(-c3ccc(F)c(F)c3)oc2-c2ccccc2)CC1 [Compound 232, 2-(3,4-Difluorophenyl)-N-(2-(4-methylpiperazin-1-yl)ethyl)-5-phenyloxazole-4-carboxamide] | -9% | 3%
COc1ccc(-c2nc(C(=O)NCCN3CCN(C)CC3)c(-c3ccccc3)o2)cc1 [Compound 213, 2-(4-Methoxyphenyl)-N-(2-(4-methylpiperazin-1-yl)ethyl)-5-phenyloxazole-4-carboxamide] | -34% | -9%
CN1CCN(CCNC(=O)c2nc(-c3cccc(F)c3)oc2-c2ccccc2[N+](=O)[O-])CC1 [Compound 223, 2-(3-Fluorophenyl)-N-(2-(4-methylpiperazin-1-yl)ethyl)-5-(2-nitrophenyl)oxazole-4-carboxamide] | 29% | 38%
CCOC(=O)c1nc(-c2ccc(F)c(F)c2)oc1-c1ccccc1[N+](=O)[O-] [Compound 71, Ethyl 2-(3,4-difluorophenyl)-5-(2-nitrophenyl)oxazole-4-carboxylate] | 29% | 49%
O=C(NCc1ccc(C(F)(F)F)cc1)c1nc(-c2ccc(C(F)(F)F)cc2)oc1-c1ccccc1[N+](=O)[O-] [Compound 148, 5-(2-Nitrophenyl)-N-(4-(trifluoromethyl)benzyl)-2-(4-(trifluoromethyl)phenyl)oxazole-4-carboxamide] | 12% | 19%
CC(=O)N1CCN(CCNC(=O)c2nc(-c3cc(F)cc(F)c3)oc2-c2ccccc2[N+](=O)[O-])CC1 [Compound 286, N-(2-(4-Acetylpiperazin-1-yl)ethyl)-2-(3,5-difluorophenyl)-5-(2-nitrophenyl)oxazole-4-carboxamide] | 18% | 33%
CN(C)CCNC(=O)c1nc(-c2cccc(F)c2)oc1-c1ccccc1 [Compound 220, N-(2-(Dimethylamino)ethyl)-2-(3-fluorophenyl)-5-phenyloxazole-4-carboxamide] | -2% | -14%
COc1ccc(-c2nc(C(=O)NCCN3CCN(C)CC3)c(-c3ccccc3[N+](=O)[O-])o2)cc1 [Compound 215, 2-(4-Methoxyphenyl)-N-(2-(4-methylpiperazin-1-yl)ethyl)-5-(2-nitrophenyl)oxazole-4-carboxamide] | -12% | 33%
CN1CCN(CCNC(=O)c2nc(-c3ccccc3C(F)(F)F)oc2-c2ccccc2[N+](=O)[O-])CC1 [Compound 120, N-(2-(4-Methylpiperazin-1-yl)ethyl)-5-(2-nitrophenyl)-2-(2-(trifluoromethyl)phenyl)oxazole-4-carboxamide] | 7% | 40%
CCOC(=O)c1nc(-c2ccc(F)c(F)c2)oc1-c1ccccc1 [Compound 70, Ethyl 2-(3,4-difluorophenyl)-5-phenyloxazole-4-carboxylate] | 18% | 41%
